From PubChem BioAssay (NCI)
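GI50 marks 50% less growth. TGI: concentration producing complete growth inhibition.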

Legend:
Experiment in all cases: NCI tumour cell line growth inhibition, 384-well format
[1] = system: NCI-H226 lung
[2] = system: SK-MEL-28 melanoma
[3] = system: SNB-19 CNS
[4] = system: HS 578T breast
[5] = system: SF-539 CNS
[6] = system: TK-10 renal
[7] = system: NCI-H322M lung
[8] = system: SK-MEL-5 melanoma
[9] = system: U251 glioblastoma
[10] = system: HT29 colon
[11] = system: MDA-MB-435 melanoma
[12] = system: SK-OV-3 ovarian
[13] = system: NCI-H522 lung
[14] = system: ACHN renal
[15] = system: HCT-116 colon
[16] = system: RXF 393 renal
[17] = system: DU-145 prostate
[18] = system: CAKI-1 renal
[19] = system: RPMI-8226 leukemia
[20] = system: OVCAR-4 ovarian
[21] = system: NCI/ADR-RES ovarian
[22] = system: HL-60(TB) leukemia
[23] = system: MDA-MB-231 breast
[24] = system: HCC-2998 colon
[25] = system: COLO 205 colon
[26] = system: OVCAR-3 ovarian
[27] = system: UACC-257 melanoma
[28] = system: HCT-15 colon
[29] = system: NCI-H460 NSCLC
[30] = system: SF-295 CNS
[31] = system: M14 melanoma
[32] = system: HOP-62 NSCLC
[33] = system: NCI-H23 lung
[34] = system: BT-549 breast
[35] = system: SF-268 CNS
[36] = system: MCF7 breast
[37] = system: UACC-62 melanoma
[38] = system: KM12 colon
[39] = system: EKVX NSCLC
[40] = system: MALME-3M melanoma
[41] = system: SNB-75 CNS
[42] = system: T-47D breast
[43] = system: OVCAR-5 ovarian
[44] = system: MDA-MB-468 breast
[45] = system: LOX IMVI melanoma
[46] = system: IGROV1 ovarian
[47] = system: OVCAR-8 ovarian
[48] = system: SR leukemia
[49] = system: MOLT-4 leukemia
[50] = system: SN12C renal
[51] = system: HOP-92 NSCLC
[52] = system: A498 renal
[53] = system: PC-3 prostate
[54] = system: A549 NSCLC

For Cn1ncc(Cl)c1-c1cc(C(=O)N[C@H](CN)Cc2cccc(F)c2)sc1Cl, the GI50 [1] was 2930 nM, the TGI [1] was 9220 nM and the GI50 [2] was 1330 nM. It also gave a TGI [2] of 2670 nM, a GI50 [3] of 1740 nM and a TGI [3] of 10200 nM. For the same compound, the GI50 [4] was 1010 nM, the TGI [4] was 2560 nM and the GI50 [5] was 337 nM. For the same compound, the TGI [5] was 2140 nM, the GI50 [6] was 1180 nM and the TGI [6] was 5470 nM. It also gave a GI50 [7] of 2150 nM, a TGI [7] of 10900 nM and a GI50 [8] of 1390 nM. The TGI [8] was 2700 nM, the GI50 [9] was 1110 nM and the TGI [9] was 2430 nM. For the same compound, the GI50 [10] was 1150 nM, the TGI [10] was 2890 nM and the GI50 [11] was 2010 nM. For the same compound, the TGI [11] was 5430 nM, the GI50 [12] was 737 nM and the TGI [12] was 8040 nM. The GI50 [13] was 1900 nM, the TGI [13] was 5360 nM and the GI50 [14] was 3460 nM. For the same compound, the TGI [14] was 15500 nM, the GI50 [15] was 2280 nM and the TGI [15] was 7530 nM. The GI50 [16] was 680 nM, the TGI [16] was 2560 nM and the GI50 [17] was 3380 nM. The TGI [17] was 14600 nM, the GI50 [18] was 2760 nM and the TGI [18] was 14000 nM. It also gave a GI50 [19] of 1760 nM, a TGI [19] of 3180 nM and a GI50 [20] of 6000 nM. For the same compound, the TGI [20] was 18900 nM, the GI50 [21] was 7070 nM and the TGI [21] was 19900 nM. The GI50 [22] was 1320 nM, the TGI [22] was 2700 nM and the GI50 [23] was 5950 nM. The TGI [23] was 18800 nM, the GI50 [24] was 558 nM and the TGI [24] was 2010 nM. The GI50 [25] was 1120 nM, the TGI [25] was 2360 nM and the GI50 [26] was 2020 nM. It also gave a TGI [26] of 10500 nM, a GI50 [27] of 1460 nM and a TGI [27] of 2790 nM. For the same compound, the GI50 [28] was 1760 nM, the TGI [28] was 13100 nM and the GI50 [29] was 427 nM. For the same compound, the TGI [29] was 2670 nM, the GI50 [30] was 1070 nM and the TGI [30] was 2330 nM. The GI50 [31] was 1710 nM, the TGI [31] was 3150 nM and the GI50 [32] was 2310 nM. For the same compound, the TGI [32] was 6220 nM, the GI50 [33] was 3200 nM and the TGI [33] was 11700 nM. The GI50 [34] was 819 nM, the TGI [34] was 2450 nM and the GI50 [35] was 4500 nM. It also gave a TGI [35] of 15300 nM, a GI50 [36] of 460 nM and a TGI [36] of 2000 nM. The GI50 [37] was 1290 nM, the TGI [37] was 2970 nM and the GI50 [38] was 532 nM. The TGI [38] was 2210 nM, the GI50 [39] was 2940 nM and the TGI [39] was 12500 nM. For the same compound, the GI50 [40] was 1300 nM, the TGI [40] was 2590 nM and the GI50 [41] was 449 nM. The TGI [41] was 3660 nM, the GI50 [42] was 274 nM and the TGI [42] was 2050 nM. For the same compound, the GI50 [43] was 1620 nM, the TGI [43] was 4290 nM and the GI50 [44] was 187 nM. The TGI [44] was 1950 nM, the GI50 [45] was 1750 nM and the TGI [45] was 3230 nM. The GI50 [46] was 43.6 nM, the TGI [46] was 534 nM and the GI50 [47] was 2110 nM. For the same compound, the TGI [47] was 5320 nM, the GI50 [48] was 1350 nM and the TGI [48] was 2640 nM. For the same compound, the GI50 [49] was 150 nM, the TGI [49] was 1120 nM and the GI50 [50] was 2670 nM. It also gave a TGI [50] of 14400 nM, a GI50 [51] of 2090 nM and a TGI [51] of 8600 nM. For the same compound, the GI50 [52] was 126 nM, the TGI [52] was 1240 nM and the GI50 [53] was 300 nM. It also gave a TGI [53] of 2690 nM, a GI50 [54] of 4010 nM and a TGI [54] of 16400 nM.
